Results from patent US9745341B2, “Tubulysins and processes for preparing” (priority 2007, dated 2017).

System: folate receptor-positive KB cells
Assay: In vitro concentration-dependent cytotoxic activity (3H-thymidine incorporation)
Assay type: cell-based
Conditions: Homo sapiens, KB, read-out: Cytotoxicity IC50 (nM)
Method: The compounds described herein are evaluated using an in vitro cytotoxicity assay that predicts the ability of the drug to inhibit the growth of folate receptor-positive KB cells. The KB cells are exposed for up to 7 h at 37° C. over a range of concentrations of folate-drug conjugate in the absence or presence of at least a 100-fold excess of folic acid. The cells are then rinsed once with fresh culture medium and incubated in fresh culture medium for 72 hours at 37° C. Cell viability is assessed using a ^3H-thymidine incorporation assay.
Cells were heavily seeded in 24-well Falcon plates and allowed to form nearly confluent monolayers overnight. Thirty minutes prior to the addition of test article, spent medium was aspirated from all wells and replaced with fresh folate-free RPMI (FFRPMI). Note, designated wells received media containing 100 μM folic acid; and, cells within the latter wells were used to determine the targeting specificity, since cytotoxic activity produced in the presence of excess folic acid (enables competition for FR binding) would signify the portion of the total activity that was unrelated to FR-specific delivery. Following one rinse with 1 mL of fresh FFRPMI containing 10% heat-inactivated fetal calf serum, each well received 1 mL of media containing increasing concentrations of test article (4 wells per sample) in the presence or absence of 100 μM free folic acid (a binding site competitor). Treated cells were pulsed for 2 h at 37° C., rinsed 4 times with 0.5 mL of media, and then chased in 1 mL of fresh media up to 70 h. Spent media was aspirated from all wells and replaced with fresh media containing 5 μCi/mL ^3H-thymidine. Following a further 2 h 37° C. incubation, cells were washed 3 times with 0.5 mL of PBS and then treated with 0.5 mL of ice-cold 5% trichloroacetic acid per well. After 15 min, the trichloroacetic acid was aspirated and the cell material solubilized by the addition of 0.5 mL of 0.25 N sodium hydroxide for 15 min. Four hundred and fifty μL of each solubilized sample were transferred to scintillation vials containing 3 mL of Ecolume scintillation cocktail and then counted in a liquid scintillation counter. Final results are expressed as the percentage of ^3H-thymidine incorporation relative to untreated controls.
As shown in the following table, dose-dependent cytotoxicity is measurable, and in most cases, the IC50 values (concentration of drug conjugate required to reduce ^3H-thymidine incorporation into newly synthesized DNA by 50%) are in the low nanomolar range.

Compound | IC50 [nM]
CCC(C)[C@H](NC(=O)[C@H]1CCCCN1C)C(=O)N(COC)[C@H](C[C@@H](OC(C)=O)c1nc(C(=O)N[C@@H](Cc2ccc(O)cc2)C[C@H](C)C(=O)O)cs1)C(C)C (stereo partly drawn) [EC0313, Methoxy Tubulysin] | 9
CCC(C)[C@H](NC(=O)[C@H]1CCCCN1C)C(=O)N(COCCO)[C@H](C[C@@H](OC(C)=O)c1nc(C(=O)N[C@@H](Cc2ccc(O)cc2)C[C@H](C)C(=O)O)cs1)C(C)C (stereo partly drawn) [EC0346, 2-Hydroxyethoxy Tubulysin] | 18
CCC(C)[C@H](NC(=O)[C@H]1CCCCN1C)C(=O)N(COCCC(C)C)[C@H](C[C@@H](OC(C)=O)c1nc(C(=O)N[C@@H](Cc2ccc(O)cc2)C[C@H](C)C(=O)O)cs1)C(C)C (stereo partly drawn) [EC0356] | 12
CCC(C)[C@H](NC(=O)[C@H]1CCCCN1C)C(=O)N(CSCCS)[C@H](C[C@@H](OC(C)=O)c1nc(C(=O)N[C@@H](Cc2ccc(O)cc2)C[C@H](C)C(=O)O)cs1)C(C)C (stereo partly drawn) [EC0374, 2-Mercaptoethylthio Tubulysin] | 24
CCC(C)[C@H](NC(=O)[C@H]1CCCCN1C)C(=O)N(CO)[C@H](C[C@@H](OC(C)=O)c1nc(C(=O)N[C@@H](Cc2ccc(O)cc2)C[C@H](C)C(=O)O)cs1)C(C)C (stereo partly drawn) [EC0386] | 42
C=CCCN(C(=O)[C@@H](NC(=O)[C@H]1CCCCN1C)C(C)CC)[C@H](C[C@@H](OC(C)=O)c1nc(C(=O)N[C@@H](Cc2ccc(O)cc2)C[C@H](C)C(=O)O)cs1)C(C)C (stereo partly drawn) [EC0550, N-Homoallyl Tubulysin] | 2
CCCSCN(C(=O)[C@@H](NC(=O)[C@H]1CCCCN1C)C(C)CC)[C@H](C[C@@H](OC(C)=O)c1nc(C(=O)N[C@@H](Cc2ccc(O)cc2)C[C@H](C)C(=O)O)cs1)C(C)C (stereo partly drawn) [EC0623] | 0.48

Same assay, conditions: concentration required to reduce 3H-thymidine incorporation into newly synthesized DNA by 50%; 2 h pulse at 37° C., chase up to 70 h; read-out: Cytotoxicity IC50

Compound | IC50 [nM]
CC[C@H](C)[C@H](NC(=O)[C@H]1CCCCN1C)C(=O)N(COC(=O)CC(C)C)[C@H](C[C@@H](OC(C)=O)c1nc(C(=O)N[C@@H](Cc2ccc(O)cc2)C[C@H](C)C(=O)O)cs1)C(C)C [Tubulysin A, reference compound] | 2
Tubulysin B [reference compound] | 2.6
